Source: patent publication US8802164B2 (Oryza Oil & Fat Chemical Co., Ltd., priority 2003, dated 2014)
≈ marks a conversion by molar mass, not a printed value.

Legend:
α-glucosidase = assay: α-Glucosidase inhibitory activity; format: biochemical, rat; conditions: for IC50: rat small intestine acetone powder enzyme, 4-methylumbelliferyl-α-D-glucopyranoside 0.05 mM, 37° C., 30 minutes; for inhibitory activity of α-glucosidase (in words): rat small intestine enzyme, Chart 2
Method: The test method is herein described. First of all, mix the acetone powder of the rat small intestine with the pH7.0. 0.1M phosphate buffer solution (product of […] JAPAN K.K), which is approx. 10 times as much as the volume of the acetone powder, and obtain the enzyme liquid from the centrifuged supernatant. Use the 0.2 mM 4-methyl umbel […]-gluco-pyranoside ([…] JAPAN K.K) as a substrate. After dissolving each sample in the DMSO, prepare the two-fold dilution series with the 4% DMSO containing phosphate buffer solution. The diluted solution (50 μL/well) and buffered substrate (25 μL/well) are mixed in a microplate, and after preheating it at 37° C. for 10 minutes, add the enzyme liquid (25 μL/well) to induce the reaction at 37° C. for 30 minutes (final concentration of enzyme: 1 mg protein mL, final concentration of substrate: 0.05 mM). Then, add the 0.2M Na2CO3 (100 μL/well) to stop the reaction. Measure the fluorescence intensity (excitation wavelength: 366 nm, determined wavelength: […]) using a microplate reader.

[1] = Hypotriglyceridemic action in blood of food-deprived mice; format: in vivo; conditions: 24-hour food-deprived mice, single oral dose, blood every hour; FIG. 9
Method: Then the effects on the blood triglyceride level are observed. The test method is herein described. First of all, take a blood sample from the veins of the 24-hour food-deprived mice (ddy. Male, 6-week-old). Half an hour later, orally apply each sample (10 mL./kg) suspended with the gum […] of 5 w/v % to the mice. Then, take a blood sample from the mice every one hour, and measure the blood triglyceride levels. Under the same condition, measure the blood triglyceride levels of the mice as a control, in which only gum […] orally administered.

[2] = Diet effect on weight gain and body fat accumulation, mice fed sample-mixed food for 13 days; format: in vivo; conditions: mice ddY, sample mixed in food; for effect on accumulation of epididymal fat and perinephric fat weight: 13 days, FIG. 2; for effect on the weight gain: free feeding 13 days, extract 0.5/1.0 wt %, caffeine 0.05/0.1 wt %, chlorogenic acid 0.15/0.3 wt %, FIG. 1
Method: The weight of each mouse was measured every other day during the feeding period, and the weight of the epididymal fat of each mouse on the last day of the feeding period. There was little difference in intake of the food among the control group (for only normal food given) and individual sample administration groups.

pancreatic lipase = target: T1, pancreatic lipase (Sus scrofa, UniProt P00591); assay: Pancreatic lipase inhibitory activity (in vitro); format: biochemical; conditions: swine pancreatic lipase 105.8 units/mL; FIG. 5
T1 construct: purchased SIGMA ADLRICH JAPAN K.K
T1 sequence (P00591 1-450): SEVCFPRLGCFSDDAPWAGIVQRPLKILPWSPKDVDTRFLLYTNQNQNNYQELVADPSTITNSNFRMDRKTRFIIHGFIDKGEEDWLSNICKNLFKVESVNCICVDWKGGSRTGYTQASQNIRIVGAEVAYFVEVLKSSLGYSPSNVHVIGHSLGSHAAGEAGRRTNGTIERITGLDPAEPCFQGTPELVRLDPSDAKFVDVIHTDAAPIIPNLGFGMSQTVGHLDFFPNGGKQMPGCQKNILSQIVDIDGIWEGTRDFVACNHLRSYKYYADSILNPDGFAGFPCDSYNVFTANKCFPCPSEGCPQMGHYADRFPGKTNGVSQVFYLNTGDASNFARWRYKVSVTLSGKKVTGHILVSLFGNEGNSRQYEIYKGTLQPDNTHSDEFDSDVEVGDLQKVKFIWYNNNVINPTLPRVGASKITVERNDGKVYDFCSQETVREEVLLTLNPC
Method: The lipase inhibitory activity was analyzed by using a pancreatic lipase (product of […] JAPAN K.K, final concentration 105.8 units/mL) derived from the swine and a lipase kit-s (Dainippon Pharmaceutical Co., Ltd.).

epididymal fat = assay: Lipolysis effect, glycerol release of epididymal fat (in vitro); format: cell-based, rats; conditions: rat epididymal fat, 37° C., three hours; extract at 1000 μg/mL; FIG. 8
Method: The test method is herein described. Remove the epididymal fat from male Wister rats, and incubate the fat in each sample solved in Medium 199 (medium culture) at a temperature of 37° C. for three hours. After completing the incubation, remove the fat and measure the amount of glycerol in the medium by using F-kit glycerol (product of Nippon Roche).

[3] = tested on: mouse adipose cell line (3T30L1); assay: Effect on fat accumulation and differentiation of 3T3-L1 adipocytes; format: cell-based; conditions: 3T3-L1 after differentiation induction, 6 days with sample; FIG. 6
Method: The test method is herein described. Cultivate the 3T30L1 adipose cell (5×10^4 cells/mL) in DMEM medium (high glucose) including fetal calf serum (10 wt %) for two days. Then, replace the medium with a different type of medium containing insulin ([…]), dexamethasone (0.25 μM) and isobutyl methyl xanthin (0.5 mM) for the differentiation induction. Two days later, replace the medium again with the different medium containing the samples and insulin (1 μg/mL), and cultivate them for six days replacing the medium every other day. After completing the cultivation, analyze the glycerol 3-phosphate dehydrogenase (GPDH) activity which is to be an indicator of the concentration of triglyceride in the cell and adipocyte differentiation.

[4] = Suppressive effect on fatty liver (hepatic triglyceride and total cholesterol); format: in vivo; conditions: mice, oral once a day for two weeks; FIG. 7
Description: The test method is herein described. Keep the mice (ddY, male, 5-week-old) in the laboratory for one week. Then, divide them into four groups and orally administer the samples suspended in the gum […] %) once a day for two weeks. On the final day of the test, remove the livers from the non-food-derived mice, and measure the amount of liver triglyceride and total cholesterol contained therein by using the test kit of Wako Pure Chemical Industries Ltd. of Japan.

[5] = Four-day weight gain test with existing dietetic materials (Chart 1); format: in vivo; conditions: mice, sample mixed in food
Method: Salacia extract can be obtained by extracting the salacia root with solvent. Evening primrose extract can also be obtained by extracting the evening primrose with solvent. As a test method, as shown in Chart 1, a four-day experiment was conducted with the mice (ddY, male, 5-week-old) to freely eat the food (CE-2, CLEA Japan, Inc.) mixed with the sample as indicated in Chart 1. The weight of each mouse was measured on the first day and on the final day of the experimental period.

| SMILES | IC50 (α-glucosidase) [µg/mL] | inhibitory activity of α-glucosidase (in words) (α-glucosidase) | lowering effect on the blood-triglyceride [1] | effect on accumulation of epididymal fat and perinephric fat weight [2] | effect on the weight gain [2] | pancreatic lipase inhibitory activity (pancreatic lipase) | lipolysis effect (glycerol release) (epididymal fat) | effect on the GPDH activity [3] | effect on the fat accumulation (triglyceride accumulation) [3] | effect on liver triglyceride [4] | liver total cholesterol value [4] | Weight (g) 4th day ([5]; 4th day, average ± standard error, n = 5) [g] | Difference in the weight compared to the control ([5]; four days) [g] | Weight increase ([5]; four days) [g] |
| --- | --- | --- | --- | --- | --- | --- | --- | --- | --- | --- | --- | --- | --- | --- |
| O=C(O)/C=C/c1ccc(O)c(O)c1 [Coffeic acid] | 100 (≈ 0.555 mM) | strong inhibitory activity of α-glucosidase | – | – | – | – | – | – | – | – | – | – | – | – |
| O=C(/C=C/c1ccc(O)c(O)c1)O[C@@H]1C[C@](O)(C(=O)O)C[C@@H](O)[C@H]1O [Chlorogenic acid, chlorogenic acid] | – | strong inhibitory activity of α-glucosidase | lowering effect on the blood-triglyceride identical to the effect of synephrine | slightly indicates a suppressive effect on the accumulation of the fat | do not have a sufficient suppressive effect on the weight gain | indicate a pancreatic lipase inhibitory activity | mild lipolysis effect | mild inhibitory effect on the GPDH activity | mild inhibitory effect on the fat accumulation | strong effect | almost the same as the value of the control group | – | – | – |
| O=C(O)[C@]1(O)C[C@@H](O)[C@@H](O)[C@H](O)C1 [Quinic acid, quinic acid] | >1000 | does not indicate the inhibitory activity | – | – | – | – | – | – | – | – | – | – | – | – |
| c1cc2c(cc1[C@H]1OC[C@H]3[C@@H]1CO[C@@H]3c1ccc3c(c1)OCO3)OCO2 [Sesamine, sesamine] | – | – | – | – | – | – | – | – | – | – | – | 30.91 ± 1.79 | -0.83 | 3.55 |
| Cn1c(=O)c2c(ncn2C)n(C)c1=O [Caffeine, caffeine] | >1000 | does not indicate the inhibitory activity | strong lowering effect on the blood-triglyceride | slightly indicates a suppressive effect on the accumulation of the fat | do not have a sufficient suppressive effect on the weight gain | indicate a pancreatic lipase inhibitory activity | – | mild inhibitory effect on the GPDH activity | mild inhibitory effect on the fat accumulation | strong effect | almost the same as the value of the control group | – | – | – |
